{
  "source": "patent US12491187B2",
  "about": "“Use of MCT1 inhibitors to enhance insulin sensitivity” (H. LEE MOFFIT CANCER CENTER AND RESEARCH INSTITUTE, INC., priority 2022, dated 2025)",
  "system": "differentiated 3T3-L1 (WT) cells",
  "assay": "Glucose uptake (Glucose Uptake-Glo) in WT adipocytes",
  "format": "cell-based, murine",
  "conditions": "RO-3306 (10 μM) co-treated with AZD3965 (1 μM)",
  "experimental": "Glucose Uptake: 3T3-L1 cells were seeded and differentiated in clear bottom 96-well plates (Corning®). After differentiation, cells were treated with or without […] AZD3965 for 24 hr, 48 hr or 72 hr as illustrated in FIG. 7 (schematic outline of experimental procedure). The cells were incubated in serum free media the night before performing the assay. The following day/morning, media was changed to serum and glucose free media for 2 hr prior to the experiment. Cells were then stimulated with 175 nM Insulin or vehicle (PBS) for 30 minutes. Glucose Uptake was measured using the Glucose Uptake-Glo™ Assay (Promega®) according to the manufacturer's protocol. The data generated were normalized by dividing the relative luminescence units (RLU) measured in insulin stimulated wells by vehicle treated controls. The aforementioned experiment was repeated in the presence of the CDK1 inhibitor, RO-3306 (10 μM), where indicated (FIG. 5C).",
  "data": [
    {"compound": "O=C1NC(=NCc2cccs2)S/C1=C\\c1ccc2ncccc2c1", "note": "[RO-3306]", "values": [
      {"measurement": "insulin-stimulated glucose uptake under co-treatment", "result": "the effects of AZD3965 were attenuated"}
    ]}
  ]
}
